Target: T1, EGFR TMLRCS (BaF3-TMLRCS cell line) (Homo sapiens, UniProt P00533, C797S/L858R/T790M)
T1 construct: host or cells: Ba/F3 (BaF3-TMLRCS), puromycin-selected
Assay: HTRF Phospho EGFR TMLRCS assay (cellular)
Format: cell-based
Settings: BaF3-TMLRCS cells, 4 hours incubation
Procedure: HTRF Phospho EGFR TMLRCS Assay (Cellular)
BaF3-TMLRCS cell line were obtained from Crownbio (San Diego, Calif., USA). Cells were maintained at 37° C., 5% CO2 in RPMI ATCC (Gibco 31870)+2 mM Glutamine+0.5 μg/ml Puromycin supplemented with 10% fetal bovine serum (FBS) (Gibco).
Cells are transferred as above to Greiner Bio-One, Nr. 784-08 micro-titerplate at 20000 cells/well in 12.5 μl of growth medium/well after the plates had been pre-filled with 12.5 nl of DMSO solutions of the to be tested compounds (in dose response) or DMSO only. After spinning the plates at 300×g for 30 seconds the cells were incubated for 4 hours at 37 C, 5% CO2, 95% humidity. The cells were lysed by adding to the compound mix 4 μl/well of the supplemented lysis buffer (Cis-bio, Phospho-EGFR HTRF kit, 64EG1PEH), followed by incubation for 30 min at room temperature with shaking (400 rpm). The plates were then frozen and stored overnight at −80 C. On the next day and after thawing the plates, 4 μl of a mixture of anti-Phospho-EGFR Cryptate and of anti-Phospho-EGFR-d2 antibody solutions prepared in the supplied detection buffer was added to each well. The lidded plates were then incubated for 4 h at room temperature before reading the fluorescence emission at 616 and 665 nm using an Envision reader (Perkin Elmer). Data was analyzed in similar fashion as above using the normalized ratio of the 665 to 616 signals multiplied by 10000.

T1 sequence (P00533 25-1210 T790M/C797S/L858R): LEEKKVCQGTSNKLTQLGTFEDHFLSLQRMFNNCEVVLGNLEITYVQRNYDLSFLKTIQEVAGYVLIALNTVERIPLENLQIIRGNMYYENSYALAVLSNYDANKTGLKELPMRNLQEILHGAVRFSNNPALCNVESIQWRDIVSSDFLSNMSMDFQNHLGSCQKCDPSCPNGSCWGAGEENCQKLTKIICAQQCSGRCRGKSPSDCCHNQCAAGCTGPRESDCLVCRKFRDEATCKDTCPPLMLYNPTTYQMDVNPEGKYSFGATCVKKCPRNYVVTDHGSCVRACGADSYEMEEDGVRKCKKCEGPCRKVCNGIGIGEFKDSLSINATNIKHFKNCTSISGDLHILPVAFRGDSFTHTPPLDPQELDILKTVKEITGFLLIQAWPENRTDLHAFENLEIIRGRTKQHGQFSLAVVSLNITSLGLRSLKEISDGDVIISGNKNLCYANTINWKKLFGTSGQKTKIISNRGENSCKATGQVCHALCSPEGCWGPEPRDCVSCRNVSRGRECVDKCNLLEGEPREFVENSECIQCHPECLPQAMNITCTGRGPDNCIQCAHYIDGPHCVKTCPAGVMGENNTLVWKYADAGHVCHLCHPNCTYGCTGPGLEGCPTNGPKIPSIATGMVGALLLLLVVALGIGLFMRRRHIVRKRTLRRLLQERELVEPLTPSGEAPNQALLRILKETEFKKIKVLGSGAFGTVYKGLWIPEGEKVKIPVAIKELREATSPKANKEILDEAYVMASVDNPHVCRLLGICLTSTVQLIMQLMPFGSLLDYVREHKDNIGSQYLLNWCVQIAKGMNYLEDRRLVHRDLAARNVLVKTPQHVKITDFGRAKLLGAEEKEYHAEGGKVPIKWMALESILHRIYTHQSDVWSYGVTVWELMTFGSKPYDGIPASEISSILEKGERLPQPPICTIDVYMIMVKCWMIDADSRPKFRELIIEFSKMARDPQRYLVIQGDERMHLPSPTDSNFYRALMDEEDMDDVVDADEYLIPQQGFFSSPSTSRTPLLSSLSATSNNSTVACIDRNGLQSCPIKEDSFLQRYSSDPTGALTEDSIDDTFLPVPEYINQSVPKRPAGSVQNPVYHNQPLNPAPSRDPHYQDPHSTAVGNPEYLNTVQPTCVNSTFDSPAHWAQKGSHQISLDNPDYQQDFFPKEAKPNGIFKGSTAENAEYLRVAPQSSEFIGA

| IC50 [nM] | SMILES |
| --- | --- |
| 3 | O=C(Nc1nccs1)C(c1ncn2c1C[C@@H](F)C2)N1Cc2c(cc(C#Cc3ccc(CN4CC5(CC(O)C5)C4)cc3)cc2C(F)(F)F)C1=O (mixture of isomers) [Example 9, (2RS)-2-[(6R)-6-Fluoro-6,7-dihydro-5H-pyrrolo[1,2-c]imidazol-1-yl]-2-[6-[2-[4-[(6-hydroxy-2-azaspiro[3.3]heptan-2-yl)methyl]phenyl]ethynyl]-1-oxo-4-(trifluoromethyl)isoindolin-2-yl]-N-thiazol-2-yl-acetamide] |
| 1 | O=C(Nc1nccs1)C(c1ncn2c1C[C@@H](F)C2)N1Cc2c(cc(C#Cc3ccc(CN4CCC(CO)CC4)cc3)cc2C(F)(F)F)C1=O (mixture of isomers) [Example 6, (2RS)-2-[(6R)-6-Fluoro-6,7-dihydro-5H-pyrrolo[1,2-c]imidazol-1-yl]-2-[6-[2-[4-[[4-(hydroxymethyl)-1-piperidyl]methyl]phenyl]ethynyl]-1-oxo-4-(trifluoromethyl)isoindolin-2-yl]-N-thiazol-2-yl-acetamide] |
| 1 | O=C(Nc1nccs1)C(c1ncn2c1CCC2)N1Cc2c(cc(C#Cc3ccc(CN4CCC(CO)CC4)cc3)cc2C(F)(F)F)C1=O (racemic) [Example 3, (2RS)-2-(6,7-Dihydro-5H-pyrrolo[1,2-c]imidazol-1-yl)-2-[6-[2-[4-[[4-(hydroxymethyl)-1-piperidyl]methyl]phenyl]ethynyl]-1-oxo-4-(trifluoromethyl)isoindolin-2-yl]-N-thiazol-2-yl-acetamide] |

Continued, molecule first:

| SMILES | IC50 [nM] |
| --- | --- |
| O=C(Nc1nccs1)C(c1ncn2c1CCC2)N1Cc2c(cc(C#Cc3ccc(CN4CCC(CO)CC4)cc3)cc2C(F)F)C1=O (racemic) [Example 5, (2RS)-2-[4-(Difluoromethyl)-6-[2-[4-[[4-(hydroxymethyl)-1-piperidyl]methyl]phenyl]ethynyl]-1-oxo-isoindolin-2-yl]-2-(6,7-dihydro-5H-pyrrolo[1,2-c]imidazol-1-yl)-N-thiazol-2-yl-acetamide] | 3 |
| O=C(Nc1nccs1)C(c1ncn2c1C[C@@H](F)C2)N1Cc2c(cc(C#Cc3ccc(CN4CCC(CO)CC4)cc3)cc2C(F)F)C1=O (mixture of isomers) [Example 10, (2RS)-2-[4-(Difluoromethyl)-6-[2-[4-[[4-(hydroxymethyl)-1-piperidyl]methyl]phenyl]ethynyl]-1-oxo-isoindolin-2-yl]-2-[(6R)-6-fluoro-6,7-dihydro-5H-pyrrolo[1,2-c]imidazol-1-yl]-N-thiazol-2-yl-acetamide] | 2 |
| CCN1CCC(c2ccc(-c3cc4c(c(C(F)(F)F)c3)CN(C(C(=O)Nc3nccs3)c3ncn5c3CCC5)C4=O)cc2)CC1 (racemic) [Example 2, (2RS)-2-(6,7-Dihydro-5H-pyrrolo[1,2-c]imidazol-1-yl)-2-[6-[4-(1-ethyl-4-piperidyl)phenyl]-1-oxo-4-(trifluoromethyl)isoindolin-2-yl]-N-thiazol-2-yl-acetamide] | 20 |
| CCN1CCC(c2ccc(-c3cc4c(c(C(F)F)c3)CN(C(C(=O)Nc3nccs3)c3ncn5c3C[C@@H](F)C5)C4=O)cc2)CC1 (mixture of isomers) [Example 7, (2RS)-2-[4-(Difluoromethyl)-6-[4-(1-ethyl-4-piperidyl)phenyl]-1-oxo-isoindolin-2-yl]-2-[(6R)-6-fluoro-6,7-dihydro-5H-pyrrolo[1,2-c]imidazol-1-yl]-N-thiazol-2-yl-acetamide] | 16 |
| CCN1CCC(c2ccc(-c3cc4c(c(C(F)F)c3)CN(C(C(=O)Nc3nccs3)c3ncn5c3CCC5)C4=O)cc2)[C@@H](F)C1 (mixture of isomers) [Example 8, (2RS)-2-[4-(Difluoromethyl)-6-[4-1(3R,4R)-1-ethyl-3-fluoro-4-piperidyl]phenyl]-1-oxo-isoindolin-2-yl]-2-(6,7-dihydro-5H-pyrrolo[1,2-c]imidazol-1-yl)-N-thiazol-2-yl-acetamide and (2RS)-2-[4-(difluoromethyl)-6-[4-1(3S,4S)-1-ethyl-3-fluoro-4-piperidyl]phenyl]-1-oxo-isoindolin-2-yl]-2-(6,7-dihydro-5H-pyrrolo[1,2-c]imidazol-1-yl)-N-thiazol-2-yl-acetamide] | 18 |
| CCN1CCC(c2ccc(-c3cc4c(c(C(F)F)c3)CN(C(C(=O)Nc3nccs3)c3ncn5c3CCC5)C4=O)cc2)CC1 (racemic) [Example 4, (2RS)-2-[4-(Difluoromethyl)-6-[4-(1-ethyl-4-piperidyl)phenyl]-1-oxo-isoindolin-2-yl]-2-(6,7-dihydro-5H-pyrrolo[1,2-c]imidazol-1-yl)-N-thiazol-2-yl-acetamide] | 11 |
| O=C(Nc1nccs1)C(c1ncn2c1C[C@@H](F)C2)N1Cc2c(cc(C#Cc3ccc(CN4CCCC(O)CC4)cc3)cc2C(F)(F)F)C1=O (mixture of isomers) [Example 11, (2RS)-2-[(6R)-6-fluoro-6,7-dihydro-5H-pyrrolo[1,2-c]imidazol-1-yl]-2-[6-[2-[4-[[(4RS)-4-hydroxyazepan-1-yl]methyl]phenyl]ethynyl]-1-oxo-4-(trifluoromethyl)isoindolin-2-yl]-N-thiazol-2-yl-acetamide] | 2 |
